Experimental data: publication PMC9038752, “Molecular mechanisms of bifunctional vitamin D receptor agonist-histone deacetylase inhibitor hybrid molecules in triple-negative breast cancer” (Scientific Reports, 2022)

Legend:
Type in all cases: cell-based, mouse
[1] = system: tubulin acetylation (HDAC6); test: Western blotting of tubulin acetylation in 4TO7 cells; settings: 6 h, western blot
Procedure: (§1) The hybrids were assessed to determine their HDACi and VDR agonist activity as well as their antiproliferative properties relative to DK-406. HDACi activity was assessed in vitro using an acetylated lysine substrate that releases a fluorescent reporter upon HDACi deacetylation and subsequent trypsin digestion. Increasing sidechain length of pyrimidine hybrids enhanced the potency of HDAC6 inhibition, with several compounds inhibiting HDAC6 with a sub-micromolar IC50, similar to that of DK-406 (Fig. 4a). […] Next, we analyzed the effects of compounds on levels of H3K9 and H3K27 acetylation in 4TO7 cells, which are controlled by class I HDACs[29],[30]. […] We also tested the capacity of analogues to induce tubulin acetylation, controlled by class II enzyme HDAC6[32], in 4TO7 cells. […]
(§2) Figure 4 (a) Results of in vitro assays for inhibition of purified HDAC2 and HDAC6 by DK-406 and heterocyclic hybrids as measured by inhibition of deacetylation of a fluorometric substrate (see Methods for details). […]
(§3) After treatments, 4T07 cells were solubilized in Lysis Buffer (20 mM Tris, pH 8, 150 mM NaCl, 1% Triton X-100, 3,5 mM SDS, 13 mM deoxycholic acid) and proteins extracted were separated on a 4–15% Tris/Glycine/SDS gel (BIO RAD). […] Signal was detected using Clarity ECL chemiluminescent substrates (Bio-Rad) and ChemiDoc Imaging System from the same company was used to quantify the intensity of bands. […]

4TO7 cells = test: RNAseq gene expression profiling in 4TO7 cells; settings: relative to control
Procedure: Cells were treated for 6 h to focus more on genes directly regulated by the VDR, or for 24 or 48 h to gain insight into longer-term effects on gene expression.
McGill Genome Centre performed a quality control before sequencing in paired-end at 50 M reads by Illumina NovaSeq 6000 S4 PE100. Sets of genes regulated in the different conditions were sent to us and downstream analysis were performed.
Table S1 and Table S2 : See Excel files with RNAseq results and analysis
48 hours prior to RNA extraction. Samples were prepared in triplicate and run on Illumina NovaSeq 6000 S4
PE100. For assessing differential gene expression for RNAseq data, the LIMMA package inR was used.
RNAseq results and statistical analyses from D, S, S+D, DK-406, and AM-193 conditions measured relative to
AM-193 for 6 or 24 hours prior to RNA extraction . Samples were prepared in triplicate and run on Illumina
NovaSeq 6000 S4 PE100. For assessing differential gene expression for RNAseq data, the LIMMA package in R was […]

[2] = system: H3K9 and H3K27 acetylation (class I HDACs); test: Western blotting of H3K9 and H3K27 acetylation in 4TO7 cells; settings: 10^–5 M, 6 h, western blot
Procedure: as §1, §2, §3

[3] = 6 h, RNAseq Supplemental table 1
[4] = 6 h, RNAseq Supplemental table 2, 1 µM AM-193, 10 µM DK-406, 100 nM 1,25D and SAHA
[5] = RNAseq Supplemental table 2, 1 µM AM-193, 10 µM DK-406, 100 nM 1,25D and SAHA
[6] = 48 h, RNAseq Supplemental table 1

SMILES: CCC(CC)(c1ccc(C(=O)NCCCCCC(=O)NO)cc1)c1ccc(OCC(O)C(C)(C)C)c(C)c1 (stereo not shown) [DK-406]
- tubulin acetylation ([1]; 10^–5 M): consistently induced tubulin acetylation
- Aaas 6h Log Fold (4TO7 cells; [3]): 1.019
- Aacs 6h Log Fold (4TO7 cells; [3]): 1.048
- Aaed1 6h Log Fold (4TO7 cells; [3]): -1.030
- Aagab 6h Log Fold (4TO7 cells; [3]): -1.033
- Aak1 6h Log Fold (4TO7 cells; [3]): 1.122
- Aaas 6h Log Fold (4TO7 cells; [4]): 0.00118
- Aacs 6h Log Fold (4TO7 cells; [4]): -0.179
- Aagab 6h Log Fold (4TO7 cells; [4]): -0.076
- Aak1 6h Log Fold (4TO7 cells; [4]): 0.090
- Aamdc 6h Log Fold (4TO7 cells; [4]): -0.107
- Aaas 24h Log Fold (4TO7 cells; [5]): -0.047
- Aacs 24h Log Fold (4TO7 cells; [5]): 0.139
- Aagab 24h Log Fold (4TO7 cells; [5]): 0.108
- Aak1 24h Log Fold (4TO7 cells; [5]): 0.086
- Aamdc 24h Log Fold (4TO7 cells; [5]): -0.190
- Aaas 48h Log Fold (4TO7 cells; [6]): -1.331
- Aacs 48h Log Fold (4TO7 cells; [6]): 1.275
- Aaed1 48h Log Fold (4TO7 cells; [6]): -1.421
- Aagab 48h Log Fold (4TO7 cells; [6]): 1.489
- Aak1 48h Log Fold (4TO7 cells; [6]): -1.002
- H3 acetylation at K9 and K27 [2]: induced H3 acetylation at K9 and K27

SMILES: CCC(CC)(c1ccc(OCCCCCC(=O)NO)cc1)c1ccc(OCC(O)C(C)(C)C)c(C)n1 (stereo not shown) [AM-193]
- tubulin acetylation ([1]; 10^–6 M): consistently induced tubulin acetylation
- Aaas 6h Log Fold (4TO7 cells; [4]): -0.023
- Aacs 6h Log Fold (4TO7 cells; [4]): 0.016
- Aagab 6h Log Fold (4TO7 cells; [4]): 0.124
- Aak1 6h Log Fold (4TO7 cells; [4]): 0.035
- Aamdc 6h Log Fold (4TO7 cells; [4]): -0.120
- Aaas 24h Log Fold (4TO7 cells; [5]): -0.051
- Aacs 24h Log Fold (4TO7 cells; [5]): 0.142
- Aagab 24h Log Fold (4TO7 cells; [5]): 0.131
- Aak1 24h Log Fold (4TO7 cells; [5]): 0.036
- Aamdc 24h Log Fold (4TO7 cells; [5]): -0.210
- H3 acetylation at K9 and K27 [2]: enhanced H3 acetylation, although to a lesser degree than DK-406
